Assay results from patent publication US20120214734A1, “TREATMENT OF METABOLIC DISORDERS” (priority 2011, published 2012).

Experiments:
Format in all cases: in vivo, human
[1] = Retrospective screen of chronic-care charts of obese hypertensive prisoners: random serum glucose, fasting lipid panel, blood pressure, weight; conditions: for dose-dependent effects: chart study, discussion
Source text: One-hundred ten (110) patient charts in chronic care for hypertension at an 1800-capacity prison were initially screened. The data included age, weight, height, ethnicity, medications, lipid panel results for glucose, triglycerides and HDL-C, and blood pressure. All known or previously diagnosed diabetics were excluded from the study.
For cases involving ACE inhibitor plus simvastatin, further analysis included evaluation of total cholesterol and calculated low density lipoprotein (LDL-C).
In order to evaluate the effects of simvastatin without ACE inhibitor, 5 additional charts were screened (increasing n to 13).
The data were analyzed with respect to random serum lab values including random serum glucose and fasting lipid panel (which included total cholesterol, HDL-C, TG, and the calculated LDL-C). […] In addition, a few charts were evaluated for temporal changes spanning chronic care visits including weight, mean arterial blood pressure, medication adjustments, and random serum values of HDL-C, triglycerides, and glucose. A two-tailed student t test was used to test for significance between 2 sample means. Linear regression analysis with F statistic was used to obtain goodness of fit. Only coefficients of determination (r2) of 0.1 or greater were reported. […] The level of significance used was a probability (P)<0.05.

[2] = Example 2: ACE inhibitor given to non-obese person with low HDL-C; conditions: 10 mg/day, after 1 year; baseline 30 mg/dL; without concomitant weight loss or lifestyle changes
Description: A non-obese person presents for physical examination. […] The patient's parent is on anti-hypertension and anti-lipemic medications. The patient's older sibling is obese, hypertensive, and is being treated for coronary artery disease including recent placement of a cardiac stent for primary coronary artery blockage. […] Given the patients family history and low HDL-C […] risk of developing one or more metabolic conditions is considered high. They are prescribed Lisinopril, 10 mg/day.

[3] = Example 3: ACE inhibitor given to severely obese person with low HDL-C; conditions: 75 mg/day, after 1 year; baseline 25 mg/dL
Description: A person presents with normal blood pressure (125/85), normal fasting glucose (105 mg/dL), and normal triglyceride (145 mg/dL). They are severely obese with a BMI of 40. […] The patient is considered to be at significant risk of developing metabolic syndrome and/or cardiovascular disease later in life. They are advised of the risk and of the beneficial effects of losing weight. After 1 year the patient advises that despite strenuous effects to lose weight, including dieting and exercise, their bodyweight remains the same. They are prescribed Captopril, 75 mg/day.

[4] = FIG. 5A, controls without ACE inhibitor (with and without Hctz)
[5] = FIG. 7, upper limit of normal daily dosages
[6] = one individual over 44 months (FIG. 3), captopril from 24 months, no anti-lipemic agent

NS(=O)(=O)c1cc2c(cc1Cl)NCNS2(=O)=O [Hctz, Hydrochlorothiazide]
mean glucose ([1]; FIG. 5A, controls without ACE inhibitor (stated for both controls, with and without Hctz)): > 110 mg/dL
mean HDL-C [1, 4]: < 42 mg/dL
mean triglyceride [1, 4]: > 159 mg/dL
random serum glucose with age ([1]; FIG. 5C, absence of ACE inhibitor): caused an age-related increase
mean glucose +/-SEM ([1]; presence of Hctz, n=15, no ACE inhibitor, no anti-lipemic): 105.8 ± 5.4 mg/dL
insulin-resistant state ([1]; with vs without Hctz, no ACE inhibitor): did not improve

NCCCC[C@H](N[C@@H](CCc1ccccc1)C(=O)O)C(=O)N1CCC[C@H]1C(=O)O [lisinopril]
dose effects with glucose, triglyceride and HDL-C ([1]; 20 and 40 mg/day): occurred
HDL-C, dose effect ([1]; FIG. 6A): significant (P<0.05) dose-dependent increase
mean HDL-C [1, 5]: parallel increases
mean glucose [1, 5]: parallel decreases
mean triglyceride [1, 5]: parallel decreases
dose-dependent effects [1]: dose-dependent effects
HDL-C levels [2]: have risen

C[C@H](N[C@@H](CCc1ccccc1)C(=O)O)C(=O)N1CCC[C@H]1C(=O)O [enalaprilat]
potency at preventing insulin resistance ([1]; compared with captopril, at presumptive therapeutically equivalent antihypertensive dosages): less potent

CCOC(=O)[C@H](CCc1ccccc1)N[C@@H](C)C(=O)N1CCC[C@H]1C(=O)O [enalapril]
mean HDL-C [1, 5]: parallel increases
mean glucose [1, 5]: parallel decreases
mean triglyceride [1, 5]: parallel decreases

C[C@H](CS)C(=O)N1CCC[C@H]1C(=O)O [captopril]
triglyceride, dose effect ([1]; FIG. 6B): significant (P <0.02) dose-dependent decrease
mean HDL-C [1, 5]: parallel increases
mean glucose [1, 5]: parallel decreases
mean triglyceride [1, 5]: parallel decreases
dose-dependent effects [1]: dose-dependent effects
HDL-C ([1]; one individual followed over 44 months (FIG. 3), captopril introduced at 24 months, atenolol and hydrochlorothiazide discontinued, no anti-lipemic agent): increased
glucose [1, 6]: decreased
mean arterial blood pressure [1, 6]: decreased
serum triglyceride [1, 6]: decreased
HDL-C levels [3]: 30 mg/dL
